Laboratory results reported in ChEMBL document CHEMBL5550152, “Design, synthesis and evaluation of novel prostate-specific membrane antigen-targeted aryl [18F]fluorosulfate PET tracers” (Bioorg Med Chem, 2024).

Tests used:
[1] = Stability of the compound in PBS buffer measured after 4 hrs by radio-HPLC analysis; format: physicochemical
[2] = Stability in mouse plasma measured after 4 hrs by radio-HPLC analysis; format: ADME, cell-free
[3] = Drug uptake in human 22Rv1 cells at 3.7 10^-2MBq measured after 1 hr relative to control; format: ADME, cell-based; settings: cwr22r
[4] = Drug uptake in human 22Rv1 cells at 3.7 10^-2MBq pretreated with 2-PMPA for 30 mins followed by compound addition and measured after 1 hr relative to control; format: ADME, cell-based; settings: cwr22r
[5] = Drug uptake in human 22Rv1 cells at 3.7 10^-2MBq measured after 4 hrs relative to control; format: ADME, cell-based; settings: cwr22r
[6] = Drug uptake in human 22Rv1 cells at 3.7 10^-2MBq pretreated with 2-PMPA for 30 mins followed by compound addition and measured after 4 hr relative to control; format: ADME, cell-based; settings: cwr22r
[7] = Drug uptake in mouse tumor xenografted with human 22Rv1 cells at 7.4 MBq, iv measured after 2 hrs by PET imaging analysis relative to control; format: ADME, organism-based, Neoplasm, CWR22R; settings: in vivo
[8] = Drug uptake in mouse tumor xenografted with human 22Rv1 cells at 7.4 MBq, iv measured after 4 hrs by PET imaging analysis relative to control; format: ADME, organism-based, Neoplasm, CWR22R; settings: in vivo
[9] = Drug uptake in mouse tumor xenografted with human 22Rv1 cells at 7.4 MBq, iv pretreated with 2-PMPA measured after 2 hrs by PET imaging analysis relative to control; format: ADME, organism-based, Neoplasm, CWR22R; settings: in vivo
[10] = Drug uptake in mouse tumor xenografted with human 22Rv1 cells at 7.4 MBq, iv pretreated with 2-PMPA measured after 4 hrs by PET imaging analysis relative to control; format: ADME, organism-based, Neoplasm, CWR22R; settings: in vivo
[11] = Drug uptake in mouse abdomen xenografted with human 22Rv1 cells at 7.4 MBq, iv measured after 2 to 4 hrs by PET imaging analysis; format: ADME, organism-based, CWR22R; settings: in vivo, time 2-4 hrs
[12] = Drug distribution in nude mouse heart xenografted with human 22Rv1 cells at 8.1 MBq,iv measured after 1 hr; format: ADME, tissue-based, CWR22R; settings: in vivo
[13] = Drug distribution in nude mouse liver xenografted with human 22Rv1 cells at 8.1 MBq,iv measured after 1 hr; format: ADME, tissue-based, CWR22R; settings: in vivo
[14] = Drug distribution in nude mouse spleen xenografted with human 22Rv1 cells at 8.1 MBq,iv measured after 1 hr; format: ADME, tissue-based, CWR22R; settings: in vivo
[15] = Drug distribution in nude mouse lung xenografted with human 22Rv1 cells at 8.1 MBq,iv measured after 1 hr; format: ADME, tissue-based, CWR22R; settings: in vivo
[16] = Drug distribution in nude mouse stomach xenografted with human 22Rv1 cells at 8.1 MBq,iv measured after 1 hr; format: ADME, tissue-based, CWR22R; settings: in vivo
[17] = Drug distribution in nude mouse small intestine xenografted with human 22Rv1 cells at 8.1 MBq,iv measured after 1 hr; format: ADME, tissue-based, CWR22R; settings: in vivo
[18] = Drug distribution in nude mouse large intestine xenografted with human 22Rv1 cells at 8.1 MBq,iv measured after 1 hr; format: ADME, tissue-based, CWR22R; settings: in vivo
[19] = Drug distribution in nude mouse gall bladder xenografted with human 22Rv1 cells at 8.1 MBq,iv measured after 1 hr; format: ADME, tissue-based, CWR22R; settings: in vivo
[20] = Drug distribution in nude mouse brain xenografted with human 22Rv1 cells at 8.1 MBq,iv measured after 1 hr; format: ADME, tissue-based, CWR22R; settings: in vivo
[21] = Drug distribution in nude mouse bone xenografted with human 22Rv1 cells at 8.1 MBq,iv measured after 1 hr; format: ADME, tissue-based, Bone element, CWR22R; settings: in vivo
[22] = Drug distribution in nude mouse muscle tissue xenografted with human 22Rv1 cells at 8.1 MBq,iv measured after 1 hr; format: ADME, tissue-based, CWR22R; settings: in vivo
[23] = Drug distribution in nude mouse blood xenografted with human 22Rv1 cells at 8.1 MBq,iv measured after 1 hr; format: ADME, tissue-based, CWR22R; settings: in vivo
[24] = Drug distribution in nude mouse heart xenografted with human 22Rv1 cells at 8.1 MBq,iv measured after 2 hrs; format: ADME, tissue-based, CWR22R; settings: in vivo
[25] = Drug distribution in nude mouse liver xenografted with human 22Rv1 cells at 8.1 MBq,iv measured after 2 hrs; format: ADME, tissue-based, CWR22R; settings: in vivo
[26] = Drug distribution in nude mouse spleen xenografted with human 22Rv1 cells at 8.1 MBq,iv measured after 2 hrs; format: ADME, tissue-based, CWR22R; settings: in vivo
[27] = Drug distribution in nude mouse lung xenografted with human 22Rv1 cells at 8.1 MBq,iv measured after 2 hrs; format: ADME, tissue-based, CWR22R; settings: in vivo
[28] = Drug distribution in nude mouse kidney xenografted with human 22Rv1 cells at 8.1 MBq,iv measured after 2 hrs; format: ADME, tissue-based, CWR22R; settings: in vivo
[29] = Drug distribution in nude mouse stomach xenografted with human 22Rv1 cells at 8.1 MBq,iv measured after 2 hrs; format: ADME, tissue-based, CWR22R; settings: in vivo
[30] = Drug distribution in nude mouse small intestine xenografted with human 22Rv1 cells at 8.1 MBq,iv measured after 2 hrs; format: ADME, tissue-based, CWR22R; settings: in vivo
[31] = Drug distribution in nude mouse large intestine xenografted with human 22Rv1 cells at 8.1 MBq,iv measured after 2 hrs; format: ADME, tissue-based, CWR22R; settings: in vivo
[32] = Drug distribution in nude mouse gall bladder xenografted with human 22Rv1 cells at 8.1 MBq,iv measured after 2 hrs; format: ADME, tissue-based, CWR22R; settings: in vivo

## COc1cc(C(=O)N[C@@H](CCC(=O)O)C(=O)N[C@@H](CCC(=O)O)C(=O)NCc2ccc(C(=O)N[C@@H](Cc3ccc4ccccc4c3)C(=O)NCCCC[C@H](NC(=O)N[C@@H](CCC(=O)O)C(=O)O)C(=O)O)cc2)ccc1OS(=O)(=O)[18F]
[1]
  Stability: Stable
[2]
  Stability: Stable
[3]
  Drug uptake: 0.72%
[4]
  Drug uptake: 0.53%
[5]
  Drug uptake: 1.19%
[6]
  Drug uptake: 0.26%
[7]
  Drug uptake: 2.85 % ID/g
[8]
  Drug uptake: 3.25 % ID/g
[9]
  Drug uptake: 1.37 % ID/g
[10]
  Drug uptake: 1.4 % ID/g
[11]
  Drug uptake: Active
[12]
  Drug uptake: 1.57 % ID/g
[13]
  Drug uptake: 4.61 % ID/g
[14]
  Drug uptake: 1.85 % ID/g
[15]
  Drug uptake: 3.18 % ID/g
[16]
  Drug uptake: 1.75 % ID/g
[17]
  Drug uptake: 2.58 % ID/g
[18]
  Drug uptake: 2.21 % ID/g
[19]
  Drug uptake: 3.69 % ID/g
[20]
  Drug uptake: 0.15 % ID/g
[21]
  Drug uptake: 2.11 % ID/g
[22]
  Drug uptake: 1.32 % ID/g
[23]
  Drug uptake: 6.43 % ID/g
[24]
  Drug uptake: 0.97 % ID/g
[25]
  Drug uptake: 1.79 % ID/g
[26]
  Drug uptake: 1.23 % ID/g
[27]
  Drug uptake: 1.28 % ID/g
[28]
  Drug uptake: 23.42 % ID/g
[29]
  Drug uptake: 0.95 % ID/g
[30]
  Drug uptake: 1.91 % ID/g
[31]
  Drug uptake: 2.77 % ID/g
[32]
  Drug uptake: 6.05 % ID/g
